Reference: ChEMBL document CHEMBL4482311, “Modulators of Prostate-Specific G-Protein Receptor (PSGR/OR51E2) and Methods of Using Same” (2018)
The source made the active and inactive calls.

Legend:
[1] = molecular target: T1, Olfactory receptor 51E2 (Homo sapiens) (UniProt Q9H255); test: Agonist activity at PSGR/OR51E2 in human LNCaP cells assessed as induction of change in extracellular metabolites level by measuring ornithine level at 1 mM incubated for 72 hrs by GC/MS analysis; assay type: cell-based
T1 sequence (whole entry): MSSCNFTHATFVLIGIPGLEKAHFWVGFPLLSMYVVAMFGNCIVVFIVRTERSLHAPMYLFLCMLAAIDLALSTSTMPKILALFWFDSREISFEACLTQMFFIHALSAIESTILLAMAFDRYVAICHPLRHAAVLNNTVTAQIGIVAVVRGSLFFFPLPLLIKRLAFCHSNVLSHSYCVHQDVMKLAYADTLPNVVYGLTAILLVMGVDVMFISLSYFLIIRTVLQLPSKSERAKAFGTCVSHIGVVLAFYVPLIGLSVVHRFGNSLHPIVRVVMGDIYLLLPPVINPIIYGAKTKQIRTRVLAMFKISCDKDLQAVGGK

[2] = molecular target: T1, Olfactory receptor 51E2 (Homo sapiens); test: Agonist activity at PSGR/OR51E2 in human LNCaP cells assessed as induction of change in intracellular metabolites level by measuring dehydro-alanine level at 1 mM incubated for 72 hrs by GC/MS analysis; assay type: cell-based
[3] = molecular target: T1, Olfactory receptor 51E2 (Homo sapiens); test: Agonist activity at PSGR/OR51E2 in human LNCaP cells assessed as induction of change in intracellular metabolites level by measuring ornithine level at 1 mM incubated for 72 hrs by GC/MS analysis; assay type: cell-based
[4] = molecular target: T1, Olfactory receptor 51E2 (Homo sapiens); test: Agonist activity at PSGR/OR51E2 in human LNCaP cells assessed as induction of change in intracellular metabolites level by measuring lactose level at 1 mM incubated for 72 hrs by GC/MS analysis; assay type: cell-based
[5] = molecular target: T1, Olfactory receptor 51E2 (Homo sapiens); test: Agonist activity at PSGR/OR51E2 in human LNCaP cells assessed as induction of change in extracellular metabolites level by measuring tyramine level at 1 mM incubated for 72 hrs by GC/MS analysis; assay type: cell-based
[6] = molecular target: T1, Olfactory receptor 51E2 (Homo sapiens); test: Agonist activity at PSGR/OR51E2 in human LNCaP cells assessed as induction of change in intracellular metabolites level by measuring spermidine level at 1 mM incubated for 72 hrs by GC/MS analysis; assay type: cell-based
[7] = molecular target: T1, Olfactory receptor 51E2 (Homo sapiens); test: Agonist activity at PSGR/OR51E2 in human LNCaP cells assessed as induction of change in intracellular metabolites level by measuring guanine level at 1 mM incubated for 72 hrs by GC/MS analysis; assay type: cell-based
[8] = molecular target: T1, Olfactory receptor 51E2 (Homo sapiens); test: Agonist activity at PSGR/OR51E2 in human LNCaP cells assessed as induction of change in extracellular metabolites level by measuring threitol/erythritol level at 1 mM incubated for 72 hrs by GC/MS analysis; assay type: cell-based
[9] = molecular target: T1, Olfactory receptor 51E2 (Homo sapiens); test: Agonist activity at PSGR/OR51E2 in human LNCaP cells assessed as induction of change in intracellular metabolites level by measuring glutamine level at 1 mM incubated for 72 hrs by GC/MS analysis; assay type: cell-based
[10] = molecular target: T1, Olfactory receptor 51E2 (Homo sapiens); test: Agonist activity at PSGR/OR51E2 in human LNCaP cells assessed as induction of change in intracellular metabolites level by measuring threitol/erythritol level at 1 mM incubated for 72 hrs by GC/MS analysis; assay type: cell-based
[11] = molecular target: T1, Olfactory receptor 51E2 (Homo sapiens); test: Agonist activity at PSGR/OR51E2 in human LNCaP cells assessed as induction of change in extracellular metabolites level by measuring glycine level at 1 mM incubated for 72 hrs by GC/MS analysis; assay type: cell-based
[12] = molecular target: T1, Olfactory receptor 51E2 (Homo sapiens); test: Agonist activity at PSGR/OR51E2 in human LNCaP cells assessed as induction of change in intracellular metabolites level by measuring tyramine level at 1 mM incubated for 72 hrs by GC/MS analysis; assay type: cell-based
[13] = molecular target: T1, Olfactory receptor 51E2 (Homo sapiens); test: Agonist activity at PSGR/OR51E2 in human LNCaP cells assessed as induction of change in intracellular metabolites level by measuring glycine level at 1 mM incubated for 72 hrs by GC/MS analysis; assay type: cell-based
[14] = molecular target: T1, Olfactory receptor 51E2 (Homo sapiens); test: Agonist activity at PSGR/OR51E2 in human LNCaP cells assessed as induction of change in extracellular metabolites level by measuring lactic acid level at 1 mM incubated for 72 hrs by GC/MS analysis; assay type: cell-based
[15] = molecular target: T1, Olfactory receptor 51E2 (Homo sapiens); test: Agonist activity at PSGR/OR51E2 in human LNCaP cells assessed as induction of change in extracellular metabolites level by measuring glutamic acid level at 1 mM incubated for 72 hrs by GC/MS analysis; assay type: cell-based
[16] = molecular target: T1, Olfactory receptor 51E2 (Homo sapiens); test: Agonist activity at PSGR/OR51E2 in human LNCaP cells assessed as induction of change in extracellular metabolites level by measuring dehydro-alanine level at 1 mM incubated for 72 hrs by GC/MS analysis; assay type: cell-based
[17] = molecular target: T1, Olfactory receptor 51E2 (Homo sapiens); test: Agonist activity at PSGR/OR51E2 in human LNCaP cells assessed as induction of change in extracellular metabolites level by measuring aspartic acid level at 1 mM incubated for 72 hrs by GC/MS analysis; assay type: cell-based
[18] = molecular target: T1, Olfactory receptor 51E2 (Homo sapiens); test: Agonist activity at PSGR/OR51E2 in human LNCaP cells assessed as induction of change in extracellular metabolites level by measuring threonine level at 1 mM incubated for 72 hrs by GC/MS analysis; assay type: cell-based
[19] = molecular target: T1, Olfactory receptor 51E2 (Homo sapiens); test: Agonist activity at PSGR/OR51E2 in human LNCaP cells assessed as induction of change in intracellular metabolites level by measuring spermine level at 1 mM incubated for 72 hrs by GC/MS analysis; assay type: cell-based
[20] = molecular target: T1, Olfactory receptor 51E2 (Homo sapiens); test: Agonist activity at PSGR/OR51E2 in human LNCaP cells assessed as induction of change in intracellular metabolites level by measuring glutamic acid level at 1 mM incubated for 72 hrs by GC/MS analysis; assay type: cell-based
[21] = molecular target: T1, Olfactory receptor 51E2 (Homo sapiens); test: Agonist activity at PSGR/OR51E2 in human LNCaP cells assessed as induction of change in intracellular metabolites level by measuring lactic acid level at 1 mM incubated for 72 hrs by GC/MS analysis; assay type: cell-based
[22] = molecular target: T1, Olfactory receptor 51E2 (Homo sapiens); test: Agonist activity at PSGR/OR51E2 in human LNCaP cells assessed as induction of change in extracellular metabolites level by measuring spermine level at 1 mM incubated for 72 hrs by GC/MS analysis; assay type: cell-based
[23] = molecular target: T1, Olfactory receptor 51E2 (Homo sapiens); test: Agonist activity at PSGR/OR51E2 in human LNCaP cells assessed as induction of change in extracellular metabolites level by measuring guanine level at 1 mM incubated for 72 hrs by GC/MS analysis; assay type: cell-based
[24] = molecular target: T1, Olfactory receptor 51E2 (Homo sapiens); test: Agonist activity at PSGR/OR51E2 in human LNCaP cells assessed as induction of change in intracellular metabolites level by measuring aspartic acid level at 1 mM incubated for 72 hrs by GC/MS analysis; assay type: cell-based
[25] = molecular target: T1, Olfactory receptor 51E2 (Homo sapiens); test: Agonist activity at PSGR/OR51E2 in human LNCaP cells assessed as induction of change in intracellular metabolites level by measuring threonine level at 1 mM incubated for 72 hrs by GC/MS analysis; assay type: cell-based
[26] = molecular target: T1, Olfactory receptor 51E2 (Homo sapiens); test: Agonist activity at PSGR/OR51E2 in human LNCaP cells assessed as induction of change in extracellular metabolites level by measuring spermidine level at 1 mM incubated for 72 hrs by GC/MS analysis; assay type: cell-based
[27] = molecular target: T1, Olfactory receptor 51E2 (Homo sapiens); test: Agonist activity at PSGR/OR51E2 in human LNCaP cells assessed as induction of change in extracellular metabolites level by measuring glutamine level at 1 mM incubated for 72 hrs by GC/MS analysis; assay type: cell-based
[28] = molecular target: T1, Olfactory receptor 51E2 (Homo sapiens); test: Agonist activity at PSGR/OR51E2 in human LNCaP cells assessed as induction of change in extracellular metabolites level by measuring lactose level at 1 mM incubated for 72 hrs by GC/MS analysis; assay type: cell-based
[29] = molecular target: T1, Olfactory receptor 51E2 (Homo sapiens); test: Agonist activity at PSGR/OR51E2 in human LNCaP cells assessed as induction of change in extracellular metabolites level by measuring serine level at 1 mM incubated for 72 hrs by GC/MS analysis; assay type: cell-based
[30] = molecular target: T1, Olfactory receptor 51E2 (Homo sapiens); test: Agonist activity at PSGR/OR51E2 in human LNCaP cells assessed as induction of change in intracellular metabolites level by measuring serine level at 1 mM incubated for 72 hrs by GC/MS analysis; assay type: cell-based
LNCaP = test: Growth inhibition of human LNCAP cells incubated for 7 days by CellTiter-Glo assay; assay type: functional, cell-based

CCC(=O)O
active: Activity [1] | Activity [2] | Activity [3] | Activity [4] | Activity [5] | Activity [6] | Activity [7] | Activity [8] | Activity [9] | Activity [10] | Activity [11] | Activity [12] | Activity [13] | Activity [14] | Activity [15] | Activity [16] | Activity [17] | Activity [18] | Activity [19] | Activity [20] | Activity [21] | Activity [22] | Activity [23] | Activity [24] | Activity [25] | Activity [26] | Activity [27] | Activity [28] | Activity [29] | Activity [30]

CC1=C(/C=C/C(C)=C/C=C/C(C)=C\C(=O)O)C(C)(C)CCC1
active: growth inhibition (GI) (LNCaP)
